US4461906A, “Pyrrolidine 2-one derivatives” (Hoffmann-La Roche Inc., priority 1979, dated 1984)

Experiment: Acute toxicity, single oral administration to mice
Conditions: mouse, in vivo, p.o.

SMILES	LD50 [mg/kg]
COc1ccc(C(=O)N2CCC(O)C2=O)cc1 (racemic) [A]	> 5000
COc1ccc(C(=O)N2CC(O)CC2=O)cc1 (racemic) [C, (R,S)-1-(p-Methoxybenzoyl)-4-hydroxy-2-pyrrolidinone]	2000 to 4000
COc1ccc(C(=O)N2CCCC2=O)cc1O [B, 1-(3-Hydroxy-4-methoxybenzoyl)-2-pyrrolidinone]	1250 to 2500
